The test system of assay [1] is AY-12 strain (membrane-type arming yeast). The assay is described as follows: GFP releasing effect of available antifungal agents, membrane-type arming yeast. It is filed as cell-based, S. cerevisiae. To be noted: RPMIB medium protected for osmotic pressure, supernatant fluorescence, difference from control with no agent. The method, then:
(§1) The cultured yeast cells in the logarithmic growth phase (AY-2 strain or AY-12 strain) were collected, and various agents were allowed to act on the yeast cells. Fluorescence intensity of the culture supernatant was measured by using Cytofluor 2300 Fluorometer (Millipore, excitation=480 nm, emission=530 nm). The fluorescence intensity under treatment with each of various agents was shown in terms of a difference in fluorescence intensity compared with that of a control in which no agent was added.
(§2) In order to ascertain whether or not the method of the present invention can be utilized for a screening of agents with a targeting site other than Kre6p, the GFP releasing effects in the AY-2 strain (wall-type arming yeast) and the AY-12 strain (membrane-type arming yeast) were compared under actions of available antifungal agents. The AY-2 strain cells and the AY-12 strain cells each cultured in a test tube were floated on a medium (RPMIB) protected for osmotic pressure, and each of the agents was allowed to act on the cells. After the culture, the fluorescence intensity of the supernatant was measured, and a difference from that of a control with no addition of the agent was calculated.

For assay [2], the system named is AY-2 strain (wall-type arming yeast). In words: GFP releasing effect of available antifungal agents, wall-type arming yeast. It is filed as cell-based, S. cerevisiae. To be noted: RPMIB medium protected for osmotic pressure, supernatant fluorescence, difference from control with no agent. The method, then:
as §1, §2

The results in this text go back to US20040091949A1, “Method of screening drug acting on cell wall” (priority 2000, published 2004).

With `C[C@@H]1[C@H](O)[C@@H](C)/C=C/C=C/C=C/C=C/C=C/C=C/C=C/[C@H](O[C@@H]2O[C@H](C)[C@@H](O)[C@H](N)[C@@H]2O)C[C@@H]2O[C@](O)(C[C@@H](O)C[C@@H](O)[C@H](O)CC[C@@H](O)C[C@@H](O)CC(=O)O[C@H]1C)C[C@H](O)[C@H]2C(=O)O` [Amphotericin B], the GFP releasing effect entry in assay [1] and in assay [2] was “Slight releasing effect” throughout.

In the case of `CC[C@@H](C(=O)[C@@H](C)[C@@H](O)[C@H](C)[C@@H]1O[C@@H]([C@@H](CC)C(=O)O)CC[C@@H]1C)[C@H]1O[C@]2(C=C[C@@H](O)[C@]3(CC[C@@](C)([C@H]4CC[C@](O)(CC)[C@H](C)O4)O3)O2)[C@H](C)C[C@@H]1C` [Salinomycin], the GFP releasing effect result in assay [1] and in assay [2] was “Slight releasing effect” throughout.

On to Aculeacin A, for which the GFP releasing effect result in assay [1] is recorded as “almost no releasing effect”; in assay [2] it was “Marked GFP releasing effect”.

`OC(Cn1cncn1)(Cn1cncn1)c1ccc(F)cc1F` [Fluconazole]: the GFP releasing effect result in assay [1] and in assay [2] was “Slight releasing effect” in each case.

Regarding Tunicamycin, the GFP releasing effect entry in assay [1] was “almost no releasing effect”; in assay [2], “Marked GFP releasing effect”.
